Experimental data: US12024499B2, “Muscarinic agonists” (Heptares Therapeutics Limited, priority 2015, dated 2024)

Columns and labels:
Type in all cases: cell-based
[1] = target: T1, human muscarinic M1 receptor (Homo sapiens, UniProt P11229); assay: Alphascreen Surefire phospho-ERK1/2 assay, M1; conditions: for EC50: CHO cells stably expressing human M1, agonist 5 min, 37° C., read-out: pEC50 M1 (converted); for Emax: CHO, read-out: % Emax cf. ACh, M1
T1 sequence (P11229 1-460): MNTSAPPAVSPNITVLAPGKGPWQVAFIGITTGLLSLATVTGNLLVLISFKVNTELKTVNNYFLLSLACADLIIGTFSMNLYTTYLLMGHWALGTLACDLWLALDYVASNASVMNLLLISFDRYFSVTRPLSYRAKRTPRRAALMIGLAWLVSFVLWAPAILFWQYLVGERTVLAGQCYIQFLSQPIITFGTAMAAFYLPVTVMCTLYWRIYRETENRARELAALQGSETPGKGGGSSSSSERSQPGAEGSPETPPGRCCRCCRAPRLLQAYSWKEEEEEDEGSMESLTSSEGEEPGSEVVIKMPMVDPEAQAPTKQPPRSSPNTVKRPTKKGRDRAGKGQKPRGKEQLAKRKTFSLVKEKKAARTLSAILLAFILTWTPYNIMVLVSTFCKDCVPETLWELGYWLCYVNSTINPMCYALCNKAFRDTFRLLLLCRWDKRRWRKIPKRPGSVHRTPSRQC
Experimental: (§1) ERK1/2 phosphorylation is a downstream consequence of both Gq/11 and Gi/o protein coupled receptor activation, making it highly suitable for the assessment of M1, M3 (Gq/11 coupled) and M2, M4 receptors (Gi/o coupled), rather than using different assay formats for different receptor subtypes. CHO cells stably expressing the human muscarinic M1, M2, M3 or M4 receptor were plated (25K/well) onto 96-well tissue culture plates in MEM-alpha+10% dialysed FBS. Once adhered, cells were serum-starved overnight. Agonist stimulation was performed by the addition of 5 μL agonist to the cells for 5 min (37° C.). Media was removed and 50 μL of lysis buffer added. After 15 min, a 4 μL sample was transferred to 384-well plate and 7 μL of detection mixture added. Plates were incubated for 2 h with gentle agitation in the dark and then read on a PHERAstar plate reader.
(§2) pEC50 and Emax figures were calculated from the resulting data for each receptor subtype.

[2] = target: T2, human muscarinic M4 receptor (Homo sapiens, UniProt P08173); assay: Alphascreen Surefire phospho-ERK1/2 assay, M4; conditions: for EC50: CHO cells stably expressing human M4, agonist 5 min, 37° C., read-out: pEC50 M4 (converted); for Emax: CHO, read-out: % Emax cf. ACh, M4
T2 construct: expressed in transfected cells
T2 sequence (P08173 1-479): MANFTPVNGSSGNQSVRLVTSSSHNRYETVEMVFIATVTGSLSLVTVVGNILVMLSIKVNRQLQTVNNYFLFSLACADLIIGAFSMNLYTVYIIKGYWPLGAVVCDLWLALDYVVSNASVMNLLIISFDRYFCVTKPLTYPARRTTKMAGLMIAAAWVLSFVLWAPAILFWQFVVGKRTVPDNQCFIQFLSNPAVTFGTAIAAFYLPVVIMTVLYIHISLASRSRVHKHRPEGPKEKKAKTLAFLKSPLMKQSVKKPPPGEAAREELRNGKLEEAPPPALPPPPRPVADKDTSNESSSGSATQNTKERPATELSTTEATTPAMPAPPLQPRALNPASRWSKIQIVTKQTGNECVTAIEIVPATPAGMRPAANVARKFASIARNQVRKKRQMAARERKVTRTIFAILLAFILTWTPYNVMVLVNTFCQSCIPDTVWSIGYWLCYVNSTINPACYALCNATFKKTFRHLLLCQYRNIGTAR
Experimental: as §1, §2

[3] = target: T3, human muscarinic M2 receptor (Homo sapiens, UniProt P08172); assay: Alphascreen Surefire phospho-ERK1/2 assay, M2; conditions: for EC50: CHO cells stably expressing human M2, agonist 5 min, 37° C., read-out: pEC50 M2 (converted); for Emax: CHO, read-out: % Emax cf. ACh, M2
T3 sequence (P08172 1-466): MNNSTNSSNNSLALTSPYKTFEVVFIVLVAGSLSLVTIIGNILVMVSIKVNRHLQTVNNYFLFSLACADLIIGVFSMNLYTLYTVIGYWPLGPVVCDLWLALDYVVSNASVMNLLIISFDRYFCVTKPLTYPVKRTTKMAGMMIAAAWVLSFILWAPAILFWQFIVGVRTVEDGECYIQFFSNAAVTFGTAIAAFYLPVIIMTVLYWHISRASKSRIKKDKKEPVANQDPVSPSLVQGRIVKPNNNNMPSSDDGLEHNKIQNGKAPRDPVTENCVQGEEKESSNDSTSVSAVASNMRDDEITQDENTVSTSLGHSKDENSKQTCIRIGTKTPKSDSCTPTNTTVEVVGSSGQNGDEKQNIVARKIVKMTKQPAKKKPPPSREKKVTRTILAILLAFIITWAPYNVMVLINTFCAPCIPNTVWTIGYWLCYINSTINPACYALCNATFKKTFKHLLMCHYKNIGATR
Experimental: as §1, §2

[4] = target: T4, human muscarinic M3 receptor (Homo sapiens, UniProt P20309); assay: Alphascreen Surefire phospho-ERK1/2 assay, M3; conditions: for EC50: CHO cells stably expressing human M3, agonist 5 min, 37° C., read-out: pEC50 M3 (converted); for Emax: CHO, read-out: % Emax cf. ACh, M3
T4 construct: expressed in transfected cells
T4 sequence (P20309 whole entry): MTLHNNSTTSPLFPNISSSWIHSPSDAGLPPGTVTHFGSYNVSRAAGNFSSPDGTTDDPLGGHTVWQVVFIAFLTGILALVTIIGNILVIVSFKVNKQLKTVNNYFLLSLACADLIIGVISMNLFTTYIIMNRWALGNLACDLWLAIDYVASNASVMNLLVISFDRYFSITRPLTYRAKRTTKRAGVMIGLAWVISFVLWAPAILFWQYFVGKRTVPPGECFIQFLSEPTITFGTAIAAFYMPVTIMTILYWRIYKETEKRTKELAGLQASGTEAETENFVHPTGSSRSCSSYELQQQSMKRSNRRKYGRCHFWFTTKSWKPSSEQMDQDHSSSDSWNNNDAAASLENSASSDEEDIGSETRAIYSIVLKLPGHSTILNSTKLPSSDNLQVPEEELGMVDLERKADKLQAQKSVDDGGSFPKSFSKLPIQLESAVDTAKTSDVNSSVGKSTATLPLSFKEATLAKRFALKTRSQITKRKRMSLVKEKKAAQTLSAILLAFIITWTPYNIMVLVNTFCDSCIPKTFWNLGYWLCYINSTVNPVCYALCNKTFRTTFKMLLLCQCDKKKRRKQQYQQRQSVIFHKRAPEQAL
Experimental: as §1, §2

For `CCOC(=O)N1CCC2(CC(N3CCC(N4C(=O)C[C@H]4C)CC3)C2)C1` (single isomer, unassigned) [Example 1-6], the EC50 [1] was greater than 20000 nM, the Emax [1] was 13% and the EC50 [2] was 251 nM. It also gave an Emax [2] of 74%.

`CCOC(=O)N1CCC2(CC(N3CCC(N4CC[C@@H]4C(=O)OC)CC3)C2)C1` (single isomer, unassigned) [Example 1-2] showed an EC50 [1] greater than 20000 nM, an Emax [1] of 37% and an EC50 [3] greater than 20000 nM. For the same molecule, the Emax [3] was 7%, the EC50 [4] was greater than 20000 nM and the Emax [4] was 7%. It also gave an EC50 [2] of 63.1 nM and an Emax [2] of 67%.

`CCOC(=O)N1CCC2(CC(N3CCC(N4CC(F)(F)C4)CC3)C2)C1` (single isomer, unassigned) [Example 1-1, Ethyl 2-[4-(3,3-difluoroazetidin-1-yl)piperidin-1-yl]-6-azaspiro[3.4]octane-6-carboxylate] gave an EC50 [1] of 1000 nM, an Emax [1] of 24% and an EC50 [2] of 158 nM. It also gave an Emax [2] of 26%.

Molecule `CCOC(=O)N1CCC2(CC(N3CCC(N4C(=O)C[C@@H]4C)CC3)C2)C1` (single isomer, unassigned) [Example 1-4] has an EC50 [1] greater than 20000 nM, an Emax [1] of 18% and an EC50 [2] of 158 nM. It also gave an Emax [2] of 41%.

`CCOC(=O)N1CCC2(CC(N3CCC(N4CCC4=O)CC3)C2)C1` (single isomer, unassigned) [Example 1-3, Ethyl 2-[4-(2-oxoazetidin-1-yl)piperidin-1-yl]-6-azaspiro[3.4]octane-6-carboxylate] showed an EC50 [1] greater than 20000 nM, an Emax [1] of 20% and an EC50 [2] of 200 nM. It also gave an Emax [2] of 23%.

With `CCOC(=O)N1CCC2(CC(N3CCC(N4C(=O)C[C@@H]4CC)CC3)C2)C1` (single isomer, unassigned) [Example 1-5] the EC50 [1] was 316 nM, the Emax [1] was 69% and the EC50 [3] was greater than 20000 nM. The Emax [3] was 37%, the EC50 [4] was greater than 20000 nM and the Emax [4] was 0%. For the same molecule, the EC50 [2] was 100 nM and the Emax [2] was 56%.

`CCOC(=O)N1CCC2(CC(N3CCC(N4C(=O)C[C@H]4CC)CC3)C2)C1` (single isomer, unassigned) [Example 1-7] gave an EC50 [1] of 794 nM, an Emax [1] of 94% and an EC50 [3] of 501 nM. It also gave an Emax [3] of 26%, an EC50 [4] greater than 20000 nM and an Emax [4] of 21%. The EC50 [2] was 79.4 nM and the Emax [2] was 101%.
